Data: ChEMBL document CHEMBL1144409, “Synthesis of new quinoxaline-2-carboxylate 1,4-dioxide derivatives as anti-Mycobacterium tuberculosis agents” (J Med Chem, 2005)
In brackets after ≈: the same amount, converted by molar mass.

Assays:
Type in all cases: functional
[1] = test system: Mycobacterium tuberculosis; assay: Ratio of the MIC value of the Mycobacterium tuberculosis kanamycin resistant strain to H37Rv strain was determined
[2] = test system: Mycobacterium tuberculosis; assay: Ratio of the MIC value of the Mycobacterium tuberculosis ciprofloxacin resistant strain to H37Rv strain was determined
[3] = test system: Mycobacterium tuberculosis; assay: In vitro minimum inhibitory concentration value against isoniazid resistant Mycobacterium tuberculosis in alamar assay
[4] = test system: Mycobacterium tuberculosis; assay: Ratio of the MIC value of the Mycobacterium tuberculosis isoniazid resistant strain to H37Rv strain was determined
[5] = test system: Mycobacterium tuberculosis; assay: In vitro minimum inhibitory concentration value against rifampin resistant Mycobacterium tuberculosis in alamar assay
[6] = test system: Mycobacterium tuberculosis; assay: Ratio of the MIC value of the Mycobacterium tuberculosis ethionamide resistant strain to H37Rv strain was determined
[7] = test system: Mycobacterium tuberculosis; assay: In vitro minimum inhibitory concentration value against ethionamide resistant Mycobacterium tuberculosis in alamar assay
[8] = test system: Mycobacterium tuberculosis; assay: In vitro minimum inhibitory concentration value against kanamycin resistant Mycobacterium tuberculosis in alamar assay
[9] = test system: Mycobacterium tuberculosis; assay: In vitro minimum inhibitory concentration value against thiacetazone resistant Mycobacterium tuberculosis in alamar assay
[10] = test system: Mycobacterium tuberculosis; assay: In vitro minimum inhibitory concentration value against ciprofloxacin resistant Mycobacterium tuberculosis in alamar assay
[11] = test system: Mycobacterium tuberculosis; assay: Ratio of the MIC value of the Mycobacterium tuberculosis rifampin resistant strain to H37Rv strain was determined
[12] = test system: Mycobacterium tuberculosis; assay: Ratio of the MIC value of the Mycobacterium tuberculosis ethambutol resistant strain to H37Rv strain was determined
[13] = test system: Mycobacterium tuberculosis; assay: Ratio of the MIC value of the Mycobacterium tuberculosis thiacetazone resistant strain to H37Rv strain was determined
[14] = test system: Mycobacterium tuberculosis; assay: In vitro minimum inhibitory concentration value against ethambutol resistant Mycobacterium tuberculosis in alamar assay

Row | SMILES | Ratio [1] | Ratio [2] | MIC [3] | Ratio [4] | MIC [5] | Ratio [6] | MIC [7] | MIC [8] | MIC [9] | MIC [10] | Ratio [11] | Ratio [12] | Ratio [13] | MIC [14]
1 | COC(=O)c1c(Cc2ccccc2)[n+]([O-])c2cc(Cl)c(Cl)cc2[n+]1[O-] | 1 µg/mL | >=3.99 ug ml-1 | 6.25 µg/mL (≈ 16.5 µM) | >=2 ug ml-1 | ≤ 3.13 µg/mL | >=2 ug ml-1 | 6.25 µg/mL (≈ 16.5 µM) | ≤ 3.13 µg/mL | ≤ 3.13 µg/mL | 12.5 µg/mL (≈ 33 µM) | 1 µg/mL | 1 µg/mL | 1 µg/mL | ≤ 3.13 µg/mL
2 | CCc1c(C(=O)OC)[n+]([O-])c2cc(C)c(C)cc2[n+]1[O-] | 1 µg/mL | 1 µg/mL | 1.56 µg/mL (≈ 5.65 µM) | 4 µg/mL | 0.39 µg/mL (≈ 1.41 µM) | 2 µg/mL | 0.78 µg/mL (≈ 2.82 µM) | 0.39 µg/mL (≈ 1.41 µM) | 0.78 µg/mL (≈ 2.82 µM) | 0.39 µg/mL (≈ 1.41 µM) | 1 µg/mL | 2 µg/mL | 2 µg/mL | 0.78 µg/mL (≈ 2.82 µM)
